Source: the supplement of paper PMC10307832

Tests used:
Test in all cases: relative viability (nuclei count vs DMSO), 5 days (fraction); higher = more cells survive
IU1-47 + Bortezomib = compound: CC1=CC(=C(N1C2=CC=C(C=C2)Cl)C)C(=O)CN3CCCCC3 [IU1-47] + CC(C)C[C@H](NC(=O)[C@H](Cc1ccccc1)NC(=O)c1cnccn1)B(O)O [Bortezomib] (partner 0.002 µM)
How it was run: (§1)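 The day after seeding in 1536-well plates, lung cancer cell lines were treated by pin tool with a single drug, or with a fixed anchor-drug dose together with five library-drug doses (not always all listed) in √10 steps. After 5 days, a combined fix-and-stain solution (final 0.05% Triton X-100, 1% formaldehyde, 1 ug/ml Hoechst) was added. Nuclei counted on 4× images gave relative viability as treated counts over vehicle counts, reported as the median of duplicate plates.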

IU1-47 + Navitoclax = compound: CC1=CC(=C(N1C2=CC=C(C=C2)Cl)C)C(=O)CN3CCCCC3 [IU1-47] + CC1(C)CCC(c2ccc(Cl)cc2)=C(CN2CCN(c3ccc(C(=O)NS(=O)(=O)c4ccc(N[C@H](CCN5CCOCC5)CSc5ccccc5)c(S(=O)(=O)C(F)(F)F)c4)cc3)CC2)C1 [Navitoclax] (partner 0.5 µM)
How it was run: as §1

FG-4592 + Phenformin = compound: Cc1nc(C(=O)NCC(=O)O)c(O)c2ccc(Oc3ccccc3)cc12 [FG-4592] + N=C(N)NC(=N)NCCc1ccccc1 [Phenformin] (partner 250 µM)
How it was run: as §1

IU1-47 + Pemetrexed = compound: CC1=CC(=C(N1C2=CC=C(C=C2)Cl)C)C(=O)CN3CCCCC3 [IU1-47] + Nc1nc2[nH]cc(CCc3ccc(C(=O)N[C@@H](CCC(=O)O)C(=O)O)cc3)c2c(=O)[nH]1 [Pemetrexed] (partner 0.2 µM)
How it was run: as §1

Cell Line | relative viability (IU1-47 + Bortezomib; first compound 0.08 µM) | relative viability (IU1-47 + Bortezomib; first compound 0.253 µM) | relative viability (IU1-47 + Bortezomib; first compound 0.8 µM) | relative viability (IU1-47 + Bortezomib; first compound 8 µM) | relative viability (IU1-47 + Navitoclax; first compound 0.08 µM) | relative viability (IU1-47 + Navitoclax; first compound 0.253 µM) | relative viability (IU1-47 + Navitoclax; first compound 0.8 µM) | relative viability (IU1-47 + Navitoclax; first compound 8 µM) | relative viability (FG-4592 + Phenformin; first compound 0.08 µM) | relative viability (FG-4592 + Phenformin; first compound 0.253 µM) | relative viability (FG-4592 + Phenformin; first compound 0.8 µM) | relative viability (FG-4592 + Phenformin; first compound 2.53 µM) | relative viability (FG-4592 + Phenformin; first compound 8 µM) | relative viability (IU1-47 + Pemetrexed; first compound 0.08 µM) | relative viability (IU1-47 + Pemetrexed; first compound 0.253 µM) | relative viability (IU1-47 + Pemetrexed; first compound 0.8 µM) | relative viability (IU1-47 + Pemetrexed; first compound 2.53 µM) | relative viability (IU1-47 + Pemetrexed; first compound 8 µM) | relative viability (IU1-47 + Bortezomib; first compound 2.53 µM) | relative viability (IU1-47 + Navitoclax; first compound 2.53 µM)
HCC-366 | 1.13 | 1.02 | 1.25 | 0.866 | 1.07 | 1.09 | 0.935 | 1.46 | 0.554 | 0.608 | 0.626 | 0.615 | 0.599 | 0.176 | 0.157 | 0.192 | 0.211 | 0.19 | – | –
HCC-827 | 1.22 | 1.12 | 1.05 | 1.11 | 1.06 | 1.08 | 1.01 | 0.995 | 0.37 | 0.376 | 0.38 | 0.367 | 0.401 | 0.26 | 0.282 | 0.275 | 0.291 | 0.26 | 1.08 | 1.02
HOP-62 | 0.926 | 1.05 | 0.701 | 0.77 | 1.05 | 0.962 | 1.12 | 1.21 | 0.601 | 0.654 | 0.672 | 0.657 | 0.665 | 0.398 | 0.454 | 0.373 | 0.223 | 0.365 | 0.753 | 0.897
IA-LM | 0.917 | 0.899 | 0.904 | 0.824 | 0.758 | 1.08 | 0.739 | 0.81 | – | – | – | – | – | – | – | – | – | – | 0.782 | 1.05
LC-2-ad | 1.03 | 1.08 | 1.1 | 0.97 | 0.429 | 0.548 | 0.524 | 0.382 | 0.571 | 0.541 | – | 0.527 | 0.658 | 0.284 | 0.283 | 0.268 | – | 0.262 | 1.03 | 0.443
LCLC-103H | 1.2 | 1.14 | 1.1 | 1.08 | – | – | – | – | 0.3 | 0.325 | 0.248 | 0.294 | 0.319 | 0.474 | 0.464 | 0.469 | 0.449 | 0.519 | 1.12 | –
LK-2 | – | – | – | – | 1.11 | 0.956 | 0.893 | 0.546 | 0.365 | 0.449 | – | 0.33 | 0.264 | 0.327 | 0.308 | 0.3 | 0.306 | 0.156 | – | 0.773
NCI-H358 | – | – | – | – | – | – | – | – | 0.361 | 0.293 | 0.372 | 0.324 | 0.5 | 0.156 | 0.169 | 0.172 | 0.184 | 0.165 | – | –
NCI-H522 | – | – | – | – | – | – | – | – | 0.711 | 0.583 | 0.562 | 0.669 | 0.641 | 0.923 | 0.975 | 1.02 | 0.735 | 0.958 | – | –
NCI-H650 | 0.908 | 0.811 | 0.952 | 0.681 | – | – | – | – | 0.393 | 0.445 | 0.406 | 0.49 | 0.437 | 1.01 | 1.1 | 0.965 | 0.878 | 1 | 0.742 | –
NCI-H661 | 0.962 | 0.944 | 0.896 | 0.732 | – | – | – | – | 0.271 | 0.281 | 0.264 | 0.274 | 0.276 | 0.925 | 0.961 | 0.977 | 0.925 | 0.947 | 0.564 | –
NCI-H727 | 0.742 | – | 1.13 | 0.704 | 0.454 | – | 0.597 | 0.391 | 0.543 | 0.341 | 0.378 | 0.643 | 0.609 | – | – | – | – | – | 0.979 | 0.413
NCI-H1299 | 1.08 | 1.06 | 1.09 | 0.945 | 1.11 | 1.13 | 1.05 | 1.03 | – | – | – | – | – | – | – | – | – | – | 0.989 | 1.05
NCI-H1395 | – | – | – | – | 1.03 | 1.07 | 1.14 | 1.15 | 0.408 | 0.46 | 0.397 | 0.408 | 0.415 | 0.888 | 0.853 | 0.747 | 0.508 | 0.738 | – | –
NCI-H1563 | 0.822 | 0.831 | 0.885 | 0.552 | – | – | – | – | 0.663 | 0.735 | 0.684 | 0.665 | 0.603 | 0.892 | 0.829 | 0.871 | 0.703 | 0.716 | 0.775 | –
NCI-H1623 | – | – | – | – | – | – | – | – | 0.607 | 0.609 | 0.595 | 0.517 | 0.542 | – | – | – | – | – | – | –
NCI-H1648 | – | – | – | – | – | – | – | – | – | – | – | – | – | 0.776 | 0.888 | 1.01 | 0.644 | 0.494 | – | –
NCI-H1703 | 0.278 | 0.354 | 0.273 | 0.504 | 1.06 | 0.961 | 0.953 | 1.15 | – | – | – | – | – | – | – | – | – | – | 0.403 | 1.44
NCI-H1793 | – | – | – | – | 0.412 | 0.358 | 0.445 | 0.424 | 0.357 | 0.273 | – | 0.307 | 0.36 | 0.691 | – | 0.802 | 0.798 | 0.629 | – | –
NCI-H1944 | – | – | – | – | 1.1 | 1.12 | 1.04 | 1.03 | 0.194 | 0.187 | 0.185 | 0.18 | 0.2 | 0.652 | 0.778 | 0.751 | 0.734 | 0.58 | – | –
NCI-H2170 | – | – | – | – | 0.74 | 0.734 | 0.684 | 0.577 | 0.381 | 0.359 | 0.494 | 0.43 | 0.503 | 0.28 | 0.362 | 0.278 | 0.264 | 0.258 | – | 0.525
NCI-H2342 | – | – | – | – | – | – | – | – | 0.521 | 0.531 | 0.519 | 0.613 | 0.469 | 0.794 | 0.782 | 0.942 | 0.825 | 0.693 | – | –
SK-MES-1 | – | – | – | – | 1.21 | 1.34 | 1.27 | 1.17 | 0.626 | 0.66 | 0.669 | 0.596 | 0.674 | 0.95 | 1.05 | 0.97 | 0.993 | 0.854 | – | 1.29
SW 900 | – | – | – | – | – | – | – | – | 0.584 | 0.687 | 0.439 | 0.47 | 0.586 | 0.478 | – | 0.495 | 0.472 | 0.383 | – | –
